IC50 data for five compounds are collected here from US20240217947A1, “Morpholinylquinazoline Compound, Pharmaceutical compositions thereof and Use Thereof” (SHANGHAI YINGLI PHARMACEUTICAL CO., LTD, priority 2022, published 2024).

Holding throughout (type): biochemical
For one assay, the target named is PI3Kα (Homo sapiens, UniProt P42336). As to the kind of experiment: PI3Kα enzyme activity inhibition IC50 evaluation assay (ADP-Glo Kinase Assay). The conditions noted are these: ATP 25 μM, PIP2 50 μg/mL, 1 hour room temperature, read-out: PI3K-α IC50. On the procedure: Effec Example 1 IC50 evaluation assay for PI3Kα, PI3Kδ, PI3Kβ and PI3Kγ enzyme activity inhibition
Chain of PI3Kα (P42336 whole entry, species assumed): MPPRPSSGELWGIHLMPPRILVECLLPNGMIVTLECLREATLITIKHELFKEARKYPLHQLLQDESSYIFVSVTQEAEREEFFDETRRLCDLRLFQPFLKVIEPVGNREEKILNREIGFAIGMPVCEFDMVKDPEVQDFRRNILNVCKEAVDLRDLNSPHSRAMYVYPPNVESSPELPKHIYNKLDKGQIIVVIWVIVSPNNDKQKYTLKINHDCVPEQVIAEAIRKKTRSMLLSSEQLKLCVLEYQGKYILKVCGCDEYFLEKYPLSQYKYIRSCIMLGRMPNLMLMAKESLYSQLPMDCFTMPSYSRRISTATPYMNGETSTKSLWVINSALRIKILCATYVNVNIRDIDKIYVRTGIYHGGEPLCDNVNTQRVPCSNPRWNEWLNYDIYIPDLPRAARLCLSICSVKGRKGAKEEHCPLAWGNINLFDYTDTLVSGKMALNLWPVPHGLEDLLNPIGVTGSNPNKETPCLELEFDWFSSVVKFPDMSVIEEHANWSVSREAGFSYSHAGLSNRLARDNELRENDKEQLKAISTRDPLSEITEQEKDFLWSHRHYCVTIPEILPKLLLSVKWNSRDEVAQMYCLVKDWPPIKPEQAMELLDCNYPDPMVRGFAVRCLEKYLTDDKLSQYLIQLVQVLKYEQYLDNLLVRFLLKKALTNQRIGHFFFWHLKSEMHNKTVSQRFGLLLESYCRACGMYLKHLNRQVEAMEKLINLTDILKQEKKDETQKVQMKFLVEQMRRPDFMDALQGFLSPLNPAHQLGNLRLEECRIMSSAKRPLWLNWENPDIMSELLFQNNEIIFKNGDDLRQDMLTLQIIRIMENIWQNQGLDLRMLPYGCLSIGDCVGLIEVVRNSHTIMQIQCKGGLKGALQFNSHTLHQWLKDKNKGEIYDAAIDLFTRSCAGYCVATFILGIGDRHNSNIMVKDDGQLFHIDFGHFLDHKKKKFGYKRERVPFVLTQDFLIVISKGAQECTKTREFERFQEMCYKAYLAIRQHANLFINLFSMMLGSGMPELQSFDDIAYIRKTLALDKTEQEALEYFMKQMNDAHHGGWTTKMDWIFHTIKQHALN
Chain of PI3Kα (P27986 whole entry partner, species assumed): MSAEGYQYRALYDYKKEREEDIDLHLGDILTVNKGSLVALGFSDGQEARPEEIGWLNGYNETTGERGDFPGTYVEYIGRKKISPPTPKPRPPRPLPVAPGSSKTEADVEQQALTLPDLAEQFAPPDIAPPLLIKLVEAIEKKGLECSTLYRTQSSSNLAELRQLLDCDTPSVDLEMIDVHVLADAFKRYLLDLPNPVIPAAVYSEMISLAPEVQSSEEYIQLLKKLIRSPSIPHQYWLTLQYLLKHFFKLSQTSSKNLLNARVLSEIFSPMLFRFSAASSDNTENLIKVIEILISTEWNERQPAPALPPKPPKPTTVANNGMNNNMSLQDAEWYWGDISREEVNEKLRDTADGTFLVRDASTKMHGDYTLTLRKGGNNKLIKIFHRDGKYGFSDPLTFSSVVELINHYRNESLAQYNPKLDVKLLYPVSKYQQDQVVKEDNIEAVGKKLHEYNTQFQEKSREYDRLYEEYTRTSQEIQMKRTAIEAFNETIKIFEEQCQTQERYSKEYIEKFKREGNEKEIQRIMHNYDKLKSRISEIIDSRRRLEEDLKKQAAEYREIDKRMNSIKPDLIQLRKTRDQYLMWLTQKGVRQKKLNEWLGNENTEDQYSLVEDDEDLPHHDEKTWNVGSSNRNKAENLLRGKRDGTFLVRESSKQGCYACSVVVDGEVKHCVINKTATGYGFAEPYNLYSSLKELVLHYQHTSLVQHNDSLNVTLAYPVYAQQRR
The experiment was performed using the ADP-Glo Kinase Assay kit, following the instructions. The following buffer solutions were prepared: 50 mM HEPES, pH 7.5, 3 mM MgCl2, 1 mM EGTA, 100 mM NaCl, 0.03% CHAPS, 2 mM DTT. The test compound samples were dissolved in DMSO and added to the screening system at a certain starting concentration such as 10 μM, 3-fold dilution, while setting up both DMSO control and no kinase control. The optimal concentrations of PI3Kα, PI3Kδ, PI3Kβ and PI3Kγ enzymes, substrate (PIP2) and ATP were prepared in buffer. The enzyme reaction system included: buffer, ATP 25 μM, kinase substrate (PIP2, 50 μg/mL), kinases [PI3Kα (0.15 μg/mL), PI3Kδ (1.2 μg/mL), PI3Kβ (0.3 μg/mL) and PI3Kγ (2.5 μg/mL)], etc. The reaction system was reacted at room temperature for 1 hour. The reaction was terminated by adding a termination reagent (ADP-Glo reagent, 5 μL), and the ADP content in the system was detected using a detection reagent (Kinase Detection Reagent, 10 μL). Signal data were collected using the Envision instrument. Calculate the percentage of (%) inhibition according to the following formula: % inhibition=(DMSO control signal value−sample signal value)/(DMSO control signal value−no-kinase control signal value). The IC50 value was obtained by fitting the curve using the formula Y=Bottom+(Top-Bottom)/(1+(IC50/X)^HillSlope).
For orientation: In ADP-Glo the light output rises with the ADP produced.

The next assay deals with HDAC3 (Homo sapiens, UniProt O15379). The assay can be described thus: HDAC3 enzyme activity inhibition IC50 evaluation experiment. To be noted: HDAC3 7 nM, acetylated peptide 5 μM, trypsin, fluorescence. On the procedure: Effect Example 2 HDAC1, HDAC2, HDAC3, HDAC6 enzyme activity inhibition IC50 evaluation experiment
Chain of HDAC3 (O15379 whole entry, species assumed): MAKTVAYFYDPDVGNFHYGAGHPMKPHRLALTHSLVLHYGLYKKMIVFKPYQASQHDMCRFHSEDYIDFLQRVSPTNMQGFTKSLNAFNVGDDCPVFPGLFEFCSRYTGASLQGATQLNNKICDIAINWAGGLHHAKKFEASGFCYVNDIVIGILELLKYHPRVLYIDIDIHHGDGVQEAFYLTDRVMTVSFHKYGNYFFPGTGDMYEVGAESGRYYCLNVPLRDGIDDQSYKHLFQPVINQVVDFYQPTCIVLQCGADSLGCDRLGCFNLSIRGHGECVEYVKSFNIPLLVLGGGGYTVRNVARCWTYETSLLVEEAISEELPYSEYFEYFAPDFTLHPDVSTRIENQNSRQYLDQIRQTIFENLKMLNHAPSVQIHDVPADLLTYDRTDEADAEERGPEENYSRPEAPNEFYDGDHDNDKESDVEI
Chain of HDAC3 (Q9Y618 395-489 partner limits assumed, species assumed): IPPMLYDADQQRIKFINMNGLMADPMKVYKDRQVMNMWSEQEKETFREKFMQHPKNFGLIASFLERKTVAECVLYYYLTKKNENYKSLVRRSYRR
Buffer solution (50 mM Tris 7.5, 0.01% Tween-20, 50 mM NaCl) was prepared according to the kit instructions, and the enzyme solution and substrate solution (acetylated peptide with the addition of trypsin) were prepared using the buffer solution. The test compound samples were dissolved with DMSO and added to the screening system at a certain starting concentration such as 10 μM, 3-fold dilution, while setting up a DMSO control and no-enzyme control. The enzyme reaction system includes: buffer, enzyme [final concentration: HDAC1=10 nM, HDAC2=4 nM, HDAC3=7 nM, HDAC6=5 nM], substrate (acetylated peptide) [final concentration: Peptide(HDAC1)=8 μM, Peptide(HDAC2)=10 μM, Peptide(HDAC3)=5 μM, Peptide(HDAC6)=11 μM], trypsin [final concentration: Trypsin(HDAC1,2,3)=0.05 μM, Trypsin(HDAC6)=0.1 μM], etc. The enzymes and compounds were reacted at room temperature for 15 min. After adding the substrate and Trypsin, centrifugation was performed for 1 min, and the fluorescence signal data (excitation wavelength 355 nM/emission wavelength 460 nm) was read continuously for 60 min using Envision, and the linear reaction segment was selected to obtain the slope and thus calculate the inhibition rate at that concentration. The IC50 value was obtained by fitting the curve using the formula Y=Bottom+(Top-Bottom)/(1+(IC50/X)^HillSlope).

A further assay addresses T1, HDAC10 (Homo sapiens, UniProt Q969S8).
T1 sequence (Q969S8 1-669): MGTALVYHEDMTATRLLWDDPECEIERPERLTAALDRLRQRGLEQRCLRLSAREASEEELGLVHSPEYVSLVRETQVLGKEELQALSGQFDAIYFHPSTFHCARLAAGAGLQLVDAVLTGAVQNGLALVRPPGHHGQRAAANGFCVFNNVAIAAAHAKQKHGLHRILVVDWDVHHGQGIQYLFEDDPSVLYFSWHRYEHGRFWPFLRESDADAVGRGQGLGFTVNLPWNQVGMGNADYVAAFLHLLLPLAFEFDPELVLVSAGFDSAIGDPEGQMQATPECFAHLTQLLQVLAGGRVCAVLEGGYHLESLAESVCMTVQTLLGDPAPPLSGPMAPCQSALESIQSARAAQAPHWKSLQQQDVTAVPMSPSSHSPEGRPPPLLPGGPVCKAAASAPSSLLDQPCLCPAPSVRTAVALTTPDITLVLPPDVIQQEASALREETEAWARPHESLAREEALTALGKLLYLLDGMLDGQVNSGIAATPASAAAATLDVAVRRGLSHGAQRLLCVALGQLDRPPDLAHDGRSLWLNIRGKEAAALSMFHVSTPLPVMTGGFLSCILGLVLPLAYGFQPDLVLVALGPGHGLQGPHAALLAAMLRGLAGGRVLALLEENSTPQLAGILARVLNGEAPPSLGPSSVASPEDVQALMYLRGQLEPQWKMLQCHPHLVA
As to the kind of experiment: HDAC10 enzyme activity inhibition IC50 evaluation experiment. To be noted: HDAC10 10 nM, acetylated peptide 4 μM, 240 min, fluorescence. On the procedure:
Effect Example 3 HDAC8, HDAC10 enzyme activity inhibition IC50 evaluation experiment
Prepare buffer solution (HDAC8: 50 mM Tris 8.0, 2.7 mM KCl, 137 mM NaCl, 1 mM MgCl2, 1 mg/mL BSA; HDAC10: 50 mM Tris 7.5, 0.01% Tween-20, 50 mM NaCl, 0.05 mg/mL BSA) according to the kit instructions, prepared Enzyme solution, substrate solution (acetylated peptide) by using buffer. The test compound samples were dissolved in DMSO and was added to the screening system at a certain starting concentration such as 10 μM, 3-fold dilution, while setting up the DMSO control and the no-enzyme control. The enzyme reaction system includes: buffer, enzyme [final concentration: HDAC8=10 nM, HDAC10=10 nM], substrate (acetylated peptide) [final concentration: Peptide(HDAC8)=20 μM, Peptide(HDAC10)=4 μM], etc. The enzymes and compounds were reacted at room temperature for 15 minutes. After adding the substrate peptide the reaction system was reacted at room temperature for 240 min. Trypsin solution was added [final concentration: Trypsin=50p M] and incubation continued for 120 min. The fluorescence signal data (excitation wavelength 355 nM/emission wavelength 460 nm) was read with Envision instrument. Calculate the inhibition rate at this concentration based on the relative fluorescence units (RFU). The IC50 value was obtained by fitting a curve using the formula Y=Bottom+(Top-Bottom)/(1+(IC50/X)^HillSlope).

The IC50 is the midpoint of a concentration-inhibition curve. As for `COc1ncc(-c2nc(N3CCOCC3)nc3c(CN4CCN(c5ncc(C(=O)NO)cn5)CC4)cc(F)cc23)cc1NS(C)(=O)=O` [Compound 7], the values for the IC50 on PI3Kα, at HDAC3 and against HDAC10 were 100 to 1000 nM, 10 to 100 nM and 100 to 1000 nM, respectively.

Consider `COc1ncc(-c2nc(N3CCOCC3)nc3c(OCCCCCCC(=O)NO)cc(F)cc23)cc1NS(C)(=O)=O` [Compound 9], for which the figures for the IC50 on PI3Kα, on HDAC3 and against HDAC10 were 1000 to 10000 nM, 10 to 100 nM and 100 to 1000 nM, respectively.

In the case of `COc1ncc(-c2nc(N3CCOCC3)nc3c(OC4CCN(c5ncc(C(=O)NO)cc5F)CC4)cc(F)cc23)cc1NS(C)(=O)=O` [Compound 30], the IC50 at PI3Kα, at HDAC3 and against HDAC10 was 100 to 1000 nM each time.

For `COc1ncc(-c2nc(N3CCOCC3)nc3c(OC4CCN(c5ncc(C(=O)NO)cn5)CC4)cc(F)cc23)cc1NS(C)(=O)=O` [Compound 39], the IC50 against HDAC3 and against HDAC10 was 10 to 100 nM throughout.

On to `COc1ncc(-c2nc(N3CCOCC3)nc3c(OC4CCN(c5ccc(C(=O)NO)cn5)CC4)cc(F)cc23)cc1NS(C)(=O)=O` [Compound 40], for which the concentration for half-maximal inhibition (IC50) against HDAC3 fell in the range of 100 to 1000 nM.
